Entries after “also recorded” stand apart in the source; their conditions may differ. Read-outs that look alike come from different tables or passages of the source.
Columns and labels:
Assay type in all cases: biochemical
[1] = molecular target: T1, TAFIa (Homo sapiens, UniProt Q96IY4); test: TAFIa carboxypeptidase activity, ActiFLUOR TAFIa fluorescence-based assay; set-up: purchased American Diagnostica Inc. (Greenwich, Conn.) 3874TAFIa; conditions: for effect on TAFIa carboxypeptidase activity (residual TAFIa activity): incubation 1 hour at room temperature, various concentrations
T1 sequence (Q96IY4 115-423): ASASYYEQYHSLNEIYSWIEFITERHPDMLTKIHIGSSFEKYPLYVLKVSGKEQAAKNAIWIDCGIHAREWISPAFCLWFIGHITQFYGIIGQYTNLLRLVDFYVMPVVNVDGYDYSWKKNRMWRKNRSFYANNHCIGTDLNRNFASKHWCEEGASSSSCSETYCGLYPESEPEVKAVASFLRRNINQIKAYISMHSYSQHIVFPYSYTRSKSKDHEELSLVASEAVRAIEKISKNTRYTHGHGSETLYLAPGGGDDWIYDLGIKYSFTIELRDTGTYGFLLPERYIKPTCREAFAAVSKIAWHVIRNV
Protocol: Residual TAFIa activity was measured using ActiFLUOR TAFIa.
Residual TAFIa activity was measured using ActiFLUOR TAFIa. […] About 60% TAFIa activity is lost at 25 mM SA.
Materials. TAFI was purchased from Hematological Associates (Essex Junction, Vt.) and TAFIa (3874TAFIa) was from American Diagnostica Inc. (Greenwich, Conn.). Carboxypeptidase activity of TAFIa was determined using ACTIFLUOR™ TAFI (#874FX) a fluorescence-based assay from American Diagnostica (Greenwich, Conn.). ASA, SA and SU were obtained from Sigma Chemical Co. (St. Louis, Mo.).
Results. The present inventors have made the surprising discovery that ASA, SA and SU may shift the hemostatic balance toward a profibrinolytic state by inhibition of TAFIa, the major regulator of fibrinolysis. TAFIa was incubated with various concentrations of ASA, SA and SU for one hour, at room temperature. Residual TAFIa activity was measured using ActiFLUOR TAFIa. […] Catella-Lawson and coworkers recently reported that ibuprofen, taken prior to aspirin, blocks the irreversible inhibition of COX-1 by aspirin and abrogates the anti-platelet activity of aspirin. Catella-Lawson, F. et al., 2001, N. Engl. J. Med. 345(25):1809-17. Since ibuprofen has little effect on TAFI, it was reasonable to conclude that ibuprofen taken prior to aspirin would not block the profibrinolytic activity of aspirin caused by TAFI inhibition.

[2] = molecular target: T2, TAFI (Homo sapiens, UniProt Q96IY4); test: TAFI activation by thrombin/thrombomodulin, SDS-PAGE; conditions: aliquots after 20 minutes, SDS-PAGE (FIG. 4)
T2 construct: purchased Hematological Associates (Essex Junction, Vt.)
T2 sequence (Q96IY4 23-423 limits assumed): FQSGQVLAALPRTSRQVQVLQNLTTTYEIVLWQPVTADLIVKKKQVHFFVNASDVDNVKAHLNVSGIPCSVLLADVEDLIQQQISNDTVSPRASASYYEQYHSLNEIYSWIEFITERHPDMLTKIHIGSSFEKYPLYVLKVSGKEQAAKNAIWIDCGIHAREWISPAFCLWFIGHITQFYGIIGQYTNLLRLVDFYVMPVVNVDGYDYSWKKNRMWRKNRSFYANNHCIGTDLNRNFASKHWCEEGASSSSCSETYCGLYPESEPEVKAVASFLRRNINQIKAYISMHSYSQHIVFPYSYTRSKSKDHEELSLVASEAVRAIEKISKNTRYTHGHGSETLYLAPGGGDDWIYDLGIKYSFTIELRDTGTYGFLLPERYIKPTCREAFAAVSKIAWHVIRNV
Protocol: After 20 minutes, aliquots were removed and analyzed by SDS-PAGE. Lane 1. Acetylsalicylic acid; 2. Salicylic acid; 3. 4-hydroxybenzoic acid; 4. 2-hydroxybenzoic acid (salicyluric acid); 5. Ibuprofen; 6. Acetominophen; 7 Control with no addition; 8. TAFI.
Not only, then, do SA and SU inhibit enzyme activity, they also retard the generation of TAFIa. Without being bound by any theory, this provides a dual mechanism by which fibrinolysis is enhanced during high dose aspirin therapy. The proposed pathways by which aspirin and its major metabolites SA and SU enhance fibrinolysis through inhibition of TAFI is presented in FIG. 5. […] Undas et al., 2001, Blood 98:2423-31.

[3] = molecular target: T1, TAFIa; test: ActiScreen TAFI HTS assay (TAFIa carboxypeptidase, hippuryl-L-lysine/LOX/HRP); set-up: made in house; host or cells: native human TAFI (not recombinant)
Protocol: The activity of the chemical compounds was assessed in the ActiScreen® TAFI HTS assay, the principle of which is shown below.
The assay is run by mixing TAFIa and test compound in microtiter plate wells. “TAFI developer” is then added to start the reaction which is run at room temperature. The TAFI developer is formulated with hippuryl-L-lysine, lysine oxidase, horseradish peroxidase and ortho-phenylene-diamine. Hippuryl-L-lysine is converted by TAFIa to hippuric acid and L-lysine. Lysine-Oxidase (LOX) converts the lysine to 6-amino-2-oxo-hexanoic acid and hydrogen peroxide. The hydrogen peroxide is used along with ortho-phenylene-diamine […] as substrate for horseradish peroxidase. The reaction produces a yellow color that was monitored for Vmax in a spectrophotometer (SpectroMax 190, Molecular Devices, Sunnyvale, Calif.) in the kinetic mode at 450 nm.
The assay can also be run as an endpoint reaction in which the enzymatic reaction is stopped at a selected point in time with 0.5 M sulphuric acid. The resulting color is read at 490 nm. A TAFI inhibitor will block the first reaction in the cascade in which TAFIa converts hippuryl-L-lysine to hippuric acid and lysine, which finally results in a decrease in Vmax or OD 490 nm relative to control reaction without addition of test compound. The assay has been designed to be run in final concentrations of DMSO of up to 20%. A known inhibitor of TAFIa carboxypeptidase activity, potato tuber carboxypeptidase inhibitor (PTCI), is used as a positive control.
Positive hits were selected based upon the ability of compounds to inhibit carboxypeptidase activity of TAFIa, as measured in the ActiScreen assay. The major criterion for selection of “hits” was based on their potency, as determined by the concentration of compound that inhibits the activity of TAFIa in the Actiscreen TAFI assay by 50% (“IC50”).

[4] = system: LOX/HRP; test: Dereplication assay: reaction of LOX/HRP with lysine; conditions: concentrations 5-10 times greater than IC50 for TAFI
Protocol: Positive hits identified with the ActiScreen TAFI assay were dereplicated to ensure that the inhibition of color development is due to blocking of the first reaction of the linked enzyme system catalyzed by TAFIa and not to inhibition of LOX or HRP.
Compounds L278R and LT32 were tested in the dereplication assay, described above.

[5] = molecular target: T3, Carboxypeptidase N(CPN) (Homo sapiens, UniProt P15169); test: Specificity against Carboxypeptidase N in pooled normal human plasma; conditions: PNP (1:10), serially diluted compound
T3 construct: pooled normal human plasma (PNP) was used as the source of CPN; from tissue; host or cells: pooled normal human plasma (PNP), diluted 1:10
T3 sequence (P15169 21-458): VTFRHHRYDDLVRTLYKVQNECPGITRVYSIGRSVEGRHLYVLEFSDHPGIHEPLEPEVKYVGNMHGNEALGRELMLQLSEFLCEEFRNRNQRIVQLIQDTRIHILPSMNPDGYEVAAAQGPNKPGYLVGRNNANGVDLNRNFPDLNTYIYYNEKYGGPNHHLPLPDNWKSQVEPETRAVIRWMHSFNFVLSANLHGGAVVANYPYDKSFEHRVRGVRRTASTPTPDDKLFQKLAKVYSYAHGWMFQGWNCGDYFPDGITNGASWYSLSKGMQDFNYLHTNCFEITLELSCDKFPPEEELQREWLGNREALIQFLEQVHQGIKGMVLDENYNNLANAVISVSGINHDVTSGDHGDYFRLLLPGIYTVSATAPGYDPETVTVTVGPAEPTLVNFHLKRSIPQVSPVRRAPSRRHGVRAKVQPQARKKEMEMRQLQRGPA
T3 sequence (P22792 22-545 partner): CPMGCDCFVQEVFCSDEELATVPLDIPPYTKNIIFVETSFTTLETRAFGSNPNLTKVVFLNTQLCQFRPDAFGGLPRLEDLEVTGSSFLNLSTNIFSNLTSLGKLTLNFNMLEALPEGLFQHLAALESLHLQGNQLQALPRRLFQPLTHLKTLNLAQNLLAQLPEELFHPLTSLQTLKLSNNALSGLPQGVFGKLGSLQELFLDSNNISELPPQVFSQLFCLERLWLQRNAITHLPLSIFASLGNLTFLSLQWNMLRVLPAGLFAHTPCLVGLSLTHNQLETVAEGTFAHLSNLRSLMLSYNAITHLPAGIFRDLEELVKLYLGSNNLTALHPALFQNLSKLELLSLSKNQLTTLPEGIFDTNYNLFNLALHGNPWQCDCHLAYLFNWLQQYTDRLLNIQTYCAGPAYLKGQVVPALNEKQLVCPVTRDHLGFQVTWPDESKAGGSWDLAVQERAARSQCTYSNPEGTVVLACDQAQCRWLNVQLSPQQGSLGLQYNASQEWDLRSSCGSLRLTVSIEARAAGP
Protocol: L278R was also tested for specificity against Carboxypeptidase N(CPN). CPN is the constituitively active carboxypeptidase B-like enzyme in plasma. In this study, pooled normal human plasma (PNP) was used as the source of CPN. The specificity studies were performed by adding PNP (1:10), ActiScreen developer and serially diluted test compound into microtiter wells. Inhibition of color development was an indication of inhibitory activity towards CPN.

[6] = molecular target: T1, TAFIa; test: TAFIa inhibition with Actichrome 874 TAFI Developer (Vmax); set-up: purchased American Diagnostica Inc. (Greenwich, Conn.) 3874TAFIa; conditions: different concentrations, Vmax (FIG. 6)
Protocol: Different concentrations of gentisic acid (GA) were incubated with TAFIa and Actichrome 874 TAFI Developer. TAFI activity (Vmax) was determined.

## CC(=O)Oc1ccccc1C(=O)O [ASA, acetylsalicylic acid]
[1]; incubation 1 hour at room temperature (FIG. 1)
  concentration at which significant inhibition of TAFI activity occurs: ~600 µg/mL
[1]
  effect on TAFIa carboxypeptidase activity (residual TAFIa activity): directly inhibited; also recorded: inhibited in a dose-dependent manner
[2]
  effect on activation of TAFI to TAFIa by thrombin/thrombomodulin: did not appear to have a significantly effect

## O=C(N[C@H](CO)Cc1ccccc1)c1cc(O)ccc1O [JV59, N-[(S)-1-hydroxy-3-phenyl-2-propyl]-2,5-dihdroxybenzamide]
[3]
  IC50: 44 µM

## NCCCNC(=O)OCCNC(=O)c1ccccc1O [L278R, 2-(2-hydroxybenzoylamino)ethyl N-(3-aminopropyl)carbamate]
[4]
  effect on reaction rate (Vmax) of LOX/HRP with lysine: Neither of the compounds had a significant effect
[3]; TAFIa preincubated with compound 1 hour at 4° C. prior to assay
  IC50: 890 µM
[3]; no preincubation
  type of inhibition of TAFIa: competitive type inhibitor
[3]; no preincubation, assay as in Example 3
  IC50: 1540 µM
[3]; preincubated 1 hour at 4° C.
  type of inhibition of TAFIa: non-competitive-type inhibitor
[5]
  inhibition of CPN: did not inhibit CPN

## O=C(NCCNC(=O)c1cc(OCc2ccccc2)ccc1OCc1ccccc1)OCCNC(=O)c1ccccc1O [LT32]
[4]
  effect on reaction rate (Vmax) of LOX/HRP with lysine: Neither of the compounds had a significant effect
[3]
  IC50: 225 µM
[3]; no preincubation
  type of inhibition of TAFIa: competitive inhibitor

## O=C(O)c1ccccc1O [SA, salicylic acid]
[1]; 25 mM, room temperature, 1 hour (FIG. 3)
  TAFIa activity lost: About 60%
[1]
  effect on TAFIa carboxypeptidase activity (residual TAFIa activity): directly inhibited; also recorded: inhibited in a dose-dependent manner
[2]
  effect on activation of TAFI to TAFIa by thrombin/thrombomodulin: inhibit activation of TAFI to TAFIa
[2]; listed as salicylic acid
  effect on activation of TAFI to TAFIa by thrombin/thrombomodulin: inhibit the activation of TAFI

## O=C(O)CNC(=O)c1ccccc1O [SU, salicyluric acid (2-hydroxyhippuric acid)]
[1]; SU vs SA vs ASA, 1 hour at room temperature
  rank of potency as TAFIa inhibitor: most effective inhibitor
[1]
  effect on TAFIa carboxypeptidase activity (residual TAFIa activity): directly inhibited; also recorded: inhibited in a dose-dependent manner
[2]
  effect on activation of TAFI to TAFIa by thrombin/thrombomodulin: inhibit activation of TAFI to TAFIa
[2]; listed as 2-hydroxybenzoic acid (salicyluric acid)
  effect on activation of TAFI to TAFIa by thrombin/thrombomodulin: inhibit the activation of TAFI

## CC(=O)Nc1ccc(O)cc1 [acetominophen]
[1]
  effect on TAFIa carboxypeptidase activity (residual TAFIa activity): little inhibitory effect

## O=C(O)c1cc(O)ccc1O [gentisic acid]
[6]
  type of inhibition of TAFIa: competitive inhibition

## CC(C)Cc1ccc(C(C)C(=O)O)cc1 (stereo not drawn) [ibuprofen]
[1]
  effect on TAFIa carboxypeptidase activity (residual TAFIa activity): little inhibitory effect
